These results are taken from ChEMBL document CHEMBL1155650, “New oleanene triterpenoid saponins from Madhuca longifolia” (J Nat Prod, 2000).

Active and inactive are the calls of the source. The calls are words filed in the database; no cut-off is given here.

For the assay, the species on record is Homo sapiens. Put plainly: Cytotoxicity against human Kato 3 cells. The class given is functional, cell-based.
In the case of `C[C@@H]1O[C@@H](O[C@H]2[C@H](OC(=O)[C@]34CCC(C)(C)C[C@H]3C3=CC[C@@H]5[C@@]6(C)C[C@H](O)[C@H](O)[C@@](C)(CO)[C@@H]6[C@H](O)C[C@@]5(C)[C@]3(C)CC4)OC[C@H](O)[C@@H]2O)[C@H](O)[C@H](O)[C@H]1O`, the outcome was inactive. Take `CC1(C)CC[C@]2(C(=O)O[C@@H]3OC[C@H](O)[C@H](O)[C@H]3O)CC[C@]3(C)C(=CC[C@@H]4[C@@]5(C)CC(=O)[C@H](O)[C@@](C)(CO)[C@@H]5[C@H](O)C[C@]43C)[C@@H]2C1`: the result was inactive. To `CC1(C)CC[C@]2(C(=O)O[C@@H]3OC[C@H](O)[C@H](O)[C@H]3O)CC[C@]3(C)C(=CC[C@@H]4[C@@]5(C)CC(=O)[C@H](O[C@@H]6O[C@H](CO)[C@@H](O)[C@H](O)[C@H]6O)[C@@](C)(CO)[C@@H]5[C@H](O)C[C@]43C)[C@@H]2C1` belongs “inactive”; to `CC1(C)CC[C@]2(C(=O)O[C@@H]3OC[C@H](O)[C@H](O)[C@H]3O)CC[C@]3(C)C(=CC[C@@H]4[C@@]5(C)C[C@H](O)[C@H](O)[C@@](C)(CO)[C@@H]5[C@H](O)C[C@]43C)[C@@H]2C1`, “inactive”.
